Results from patent US8088602B1, “Manipulation of RNA stability and protein synthesis using thio-phosphate” (priority 2001, dated 2012).

Assays:
bacteria = experiment: Soluble protein levels, biuret reagent, bacteria; assay type: cell-based; conditions: low ratios of thio-phosphate to phosphate (10-30%)
Description: (§1) At higher ratios a slight decline in growth appears to account for a reduction in total protein synthesis detected. To measure protein synthesis 4 ml of cells are pelleted washed in PBS and resuspended in lysozyme solution for bacteria. Cells are then pelleted again and washed in PBS to remove lysozyme. Cells are then lysed in 400 ul of 1% SDS and 0.2 N NaOH. The extract is then diluted in water to 2 ml and assayed using the biuret reagent (Gornall et al (1949) J. Biol. Chem. 177:751). Yeast are assayed without lysozyme.

Carassius auratus = experiment: Tolerance of fish kept in conditioned media with thio-phosphate; assay type: in vivo; conditions: up to 250 mg/L of thio-phosphate in conditioned media, two days
Description: (§2) Thio-phosphate can also be utilized by whole animals and/or complex tissues. Carassius auratus incorporates thio-phosphate into the DNA of intestinal cells; these cells are known to turnover in adults. Fish can be maintained in distilled water with NovAqua and AmQuel conditioners (U.S. Pat. No. 4,666,610). Goldfish flakes are also added for food. Normal phosphate levels in the aquarium are less than 1 mg/L (Hanna Phosphate Test Kit; Hanna Instruments). Fish are transferred to 100 ml of conditioned media with up to 250 mg/L of thio-phosphate added. […] Fresh media is prepared daily. Fish are sacrificed and DNA prepared from intestinal cells using DNAzol™ (Molecular Research Center Ohio). The DNA samples are then tested for resistance to DNase digestion. Samples are incubated in a 50 ul rxn with ˜lug of DNA and 0.5 units of DNase for 0, 5, 10, 15 min. at room temp. DNA from 250 mg/L thio-phosphate media is much more resistant than wildtype DNA or DNA from 25 mg/L thio-phosphate media. Normal DNA and 25 mg/L thio-phosphate treated DNA is digested after 5 min. while 250 mg/L thio-phosphate treated DNA persists beyond 15 min. of digestion (FIG. 3).

yeast actin mRNA = experiment: Northern analysis of actin mRNA in yeast grown in thio-phosphate media; assay type: cell-based, S. cerevisiae; conditions: 100% thio-phosphate substituted media; ~0.5 ug total RNA
Description: To maximize mRNA levels cells are grown in minimal media substituted with 100% thio-phosphate. Bacteria and yeast grow quite well in such media. For E. coli minimal media is prepared as follows: (Na3SPO3.XH2O) 10-15 g/L and KCL (1.5 g/L) (NH4)2SO4, 1 g/L; sodium citrate 2H2O, 0.5 g/L; Adjust pH to 7.4 and sterile filter. Then add the following: MgSO4.7H2O, 0.2 g/L (sterilized separately as a conc. solution); (thiamine HCL, 5 ug/L; glucose, 4 g/L sterilized separately by filtration). Glucose can also be sterilized by autoclaving separately. FeCl2 (500 ug/L) can also be added as needed. Thio-phosphate contains variable amounts of water (10-15 per molecule) not included in molecular weight calculations. It is almost 50% water by weight. Note pH control is important in maximizing thio-phosphate stability. […] When adapting to other bacteria determine the sensitivity of the organism to thio-phosphate levels. Optimize for KCL as this often is provided as a salt of normal phosphate. […]
The mRNA is in the size range expected for a mature mRNA in which the intron sequences have been removed (FIG. 1). […] The probe is hybridized according to S&S protocols and detected by chemilumescence using polaroid film. […] Extracellular nucleases are detected by monitoring the degradation of genomic DNA by gel electrophoresis.

Extracellular nucleases = experiment: Extracellular nuclease activity of yeast (degradation of genomic DNA by gel electrophoresis); assay type: cell-based
Description: (§3) An additional assay was developed to examine the effects of thio-phosphate media on the synthesis of secreted proteins. Yeast excrete many extracellular hydrolases and the mRNAs for […] adenine, histidine, leucine, lysine, and uracil (Sp, BIO101). Various S. cerevisiase strains are able to grow in minimal media containing thio-phosphate: multiploid fleischmann's yeast strain, haploid strain ATTC# 32119, and diploid strain BJ3505 (Sigma). The haploid strain Pichia canadensis ATTC# 14355 grew better with a yeast nitrogen based media (YNB, BIO 101) as opposed to EMM. Note that the optimal level of total phosphate for yeast is ˜1 g/L which is much less than that for bacteria. Again if necessary to improve growth use nutrient broths depleted of phosphate (see below).
The mRNA is in the size range expected for a mature mRNA in which the intron sequences have been removed (FIG. 1). […] The actin probe is prepared by amplification of yeast genomic DNA (act), YFL039C, Saccharomyces Genome Database http://genome-www2.standford.edu) with the following PCR primers: • SEQ ID NO. 1: 5′ GAGGTTGCTGCTTTGGTTATTG 3′ 22 bp • SEQ ID NO. 2: 5′ TTGTGGTGAACGATAGATGGAC 3′ 22 bp PCR cycling parameters using a BIO-RAD thermal cycler and Taq polymerase are as follows: initial denaturation at 94° C. for 4 min. followed by 33 cycles of denaturation at 94° C. for 30 sec, annealing at 45° C. for 30 sec, elongation at 72° C. for 3 min. followed by a final elongation at 72° C. for 7 min. […] Total RNA (˜0.5 ug) is separated on a 2% high resolving agarose gel and transferred to a neutral nylon membrane. The probe is hybridized according to S&S protocols and detected by chemilumescence using polaroid film. […] Extracellular nucleases are detected by monitoring the degradation of genomic DNA by gel electrophoresis.

beta-galactosidase = experiment: Recombinant beta-galactosidase colormetric assay (X-gal) in bacterial cells; assay type: cell-based; conditions: for effect on beta-galactosidase enzyme activity: 2% lactose minimal media
Description: A recombinant vector containing the beta-galactosidase gene (Promega's TA vector expressed from an SP6 promoter) can also be examined. Enzyme activity is detected via a colormetric assay. Cells are grown in minimal media made with 2% lactose rather than glucose for optimal induction of beta-galactosidase. After several (˜4-5) hrs bacterial cells are removed to assay for enzyme activity. To 0.5 ml of cells add 0.5 ml of 200 mM Tris-HCL, pH 7.5 and 5 ul of 1% SDS (sodium dodecyl sulfate). Then add 10 ul of IPTG (100 mM) and 20 ul of X-gal (50 mg/ml), mix and incubate at 37° C. […] In the presence of glucose which represses the enzyme, the activity is much lower but can be enhanced 10 fold by using a 50% ratio of thio-phosphate to phosphate.

[1] = system: pFLAG-ATS-BAP (bacterial alkaline phosphatase) expression in JM109; experiment: Bacterial expression of pFLAG-ATS-BAP, colormetric staining of whole cells (NBT/BCIP); assay type: cell-based, bacterial cells (JM109)
Description: Bacterial expression can be examined using the recombinant vector pFLAG-ATS-BAP (Sigma Chemical; U.S. Pat. Nos. 4,703,004, 4,782,137 EP Patent 150126, and JP Patent 1983150) marked with bacterial alkaline phosphatase and under the control of a tac/lac hybrid promoter induced by IPTG. This control plasmid is expressed in the periplasmic fraction by virtue of the N-terminal OmpA signal at high levels. Enzyme activity is easily visualized using colormetric staining of whole cells. 0.5 ml of cells are pelleted and resuspended in pH 9.5 buffer (0.1 M Tris-HCL, 0.1 M NaCL, 50 mM MgCl2) along with 10 ul of NBT (nitroblue tetrazolium, 50 mg/ml) and 5 ul of BCIP (5-bromo-4-chloro-3-indolylphosphate, 50 mg/ml). After sufficient time (there may be a slight delay in the activity of induced cells) the samples are compared and then centrifuged to compare pellets. Various ratios of modified phosphate to phosphate are examined: 0%, 10%, 15%, 20%, 25%, 30%, 40%, 50%, 60, 70%, 80%, 90% and 100%. […] To determine the optimal ratio a lower level of lactose is used in the media to prevent the formation of inclusion bodies during the analysis (M9 minimal media made with 0.1% rather than 0.5% lactose, total phosphate levels of 10 g/L). […]

DNA of intestinal cells = experiment: DNase resistance of intestinal DNA from fish kept in thio-phosphate media; assay type: in vivo, Carassius auratus; conditions: 0.5 units DNase, room temp.
Description: as §2

[2] = system: YEpFLAG-1-BAP (bacterial alkaline phosphatase) expression in yeast cells (BJ3505 strain); experiment: Recombinant FLAG-tagged secreted bacterial alkaline phosphatase synthesis in yeast (immuno test strips, dilution assays); assay type: cell-based, S. cerevisiae
Description: (§4) The stabilization of RNA by growth in thio-phosphate media can be used to enhance the protein synthesis of many proteins. The optimal level of thio-phosphate to phosphate must be determined as well absolute levels of total phosphate that are tolerable. Growth in all cases is enhanced by using enriched media prepared by depleting inherent phosphate. To deplete phosphate by precipitation, MgSO4 and ammonium hydroxide are added to the media of choice. YPD (1% Bacto-yeast extract, 2% Bacto-peptone, 2% Dextrose) phosphate depleted media is prepared by adding 10 ml of 1 M MgSO4 and 10 ml of concentrated NH4OH per liter and allowing the ppt. to form by leaving the solution at room temp. for 30 min. The media is then filtered and the pH readjusted to pH 6.5. Using this procedure, the detectable amount of ortho-phosphate remaining is less than ˜200 mg/liter. […] It is best to innoculate at high densities using, for example a 1:20 dilution. Insufficient innoculum (low density) will result in poor growth.
To test for optimal protein synthesis conditions the following system can be used: a recombinant YEp plasmid containing a secreted bacterial alkaline phosphatase gene (YEpFLAG-1-BAP, Sigma; U.S. Pat. Nos. 4,703,004, 4,782,137 EP Patent 150126, and JP Patent 1983150) marked with the FLAG™ peptide DYKDDDDK. […]

lipase = experiment: Secreted lipase of yeast, qualitative assays; assay type: cell-based
Description: as §3
The mRNA is in the size range expected for a mature mRNA in which the intron sequences have been removed (FIG. 1). […] The actin probe is prepared by amplification of yeast genomic DNA (act), YFL039C, Saccharomyces Genome Database http://genome-www2.standford.edu) with the following PCR primers: • SEQ ID NO. 1: 5′ GAGGTTGCTGCTTTGGTTATTG 3′ 22 bp • SEQ ID NO. […] The probe is hybridized according to S&S protocols and detected by chemilumescence using polaroid film. […] Extracellular nucleases are detected by monitoring the degradation of genomic DNA by gel electrophoresis.

Pichia canadensis = experiment: Growth in phosphate depleted YPD media with thio-phosphate/phosphate ratios; assay type: cell-based; conditions: phosphate levels ~1 g/L, full range of ratios (100% to 0%)
Description: as §4

S. cerevisiae = experiment: as above; assay type: cell-based; conditions: phosphate levels ~1 g/L, full range of ratios (100% to 0%)
Description: as §4

yeast = experiment: Soluble protein levels, biuret reagent, yeast; assay type: cell-based; conditions: low ratios of thio-phosphate to phosphate (10-30%)
Description: as §1

Structure (SMILES): [Na+].[Na+].[Na+].[O-]P([O-])([O-])=S [thio-phosphate, Na3SPO3.XH2O]
- soluble protein levels (bacteria): not enhanced
- adverse reactions in fish (Carassius auratus): No adverse reactions
- stabilization of actin mRNA (yeast actin mRNA): significant stabilization
- increase of extracellular nuclease activity (Extracellular nucleases; 10% ratio of thio-phosphate to phosphate): two to three fold increase
- effect on extracellular nuclease activity (Extracellular nucleases; ratios above 70%): slightly inhibitory
- effect on extracellular nuclease activity (Extracellular nucleases; ratios beyond 30%): not stimulatory
- effect on beta-galactosidase enzyme activity (beta-galactosidase; higher ratios (50-70%)): recovers from inhibition
- enhancement of beta-galactosidase activity (beta-galactosidase; in the presence of glucose, 50% ratio of thio-phosphate to phosphate): 10 fold
- effect on beta-galactosidase enzyme activity (beta-galactosidase; low ratios of thio-phosphate to phosphate (5-30%)): inhibited
- BAP activity elevated over controls ([1]; 50% ratio, low lactose levels): several fold
- optimal ratio of modified phosphate to phosphate for BAP enzyme activity ([1]; low lactose (0.1%) M9 minimal media, total phosphate 10 g/L): 50%
- time after which DNA is digested by DNase (DNA of intestinal cells; 25 mg/L thio-phosphate media): ≤ 5 min
- time DNA persists under DNase digestion (DNA of intestinal cells; 250 mg/L thio-phosphate media): > 15 min
- ratio of thio-phosphate to normal phosphate at which maximal synthesis occurs ([2]; weight equivalent ratio, grown overnight, following cessation of growth, ratios 100-0 tested): ~10%
- increase of FLAG-BAP protein compared to normal media with an equivalent amount of phosphate ([2]; ~10% ratio, dilution assays): about ten fold
- increase of lipase (lipase): less than two fold
- growth (Pichia canadensis): adequate growth
- growth (S. cerevisiae): adequate growth
- soluble protein levels (yeast): not enhanced
